Laboratory results as given in PMC9862227, “ATP and nucleic acids competitively modulate LLPS of the SARS-CoV2 nucleocapsid protein” (Communications Biology, 2023).

Biological target: T1, N (1-249) (Severe acute respiratory syndrome coronavirus 2, UniProt P0DTC9)
T1 construct: fragment 1-249 of the 419-residue protein (IDR1, NTD, IDR2); pET-28a, N-terminal 6xHis-SUMO tag removed with TEV protease; E. coli BL21; 15N-labelled
Assay: biochemical
Assay type: binding

Structure (SMILES): Nc1ncnc2c1ncn2[C@@H]1O[C@H](COP(=O)(O)OP(=O)(O)OP(=O)(O)O)[C@@H](O)[C@H]1O [ATP]
- Kd: 2 ± 0.2 mM
